Literature values, collected in patent US7527814B2, “Process for the isolation of calliterpenone” (Council of Scientific and Industrial Research, priority 2006, dated 2009).

Legend:
plant growth = conditions: if used in a particular method
[1] = system: growth retardant effects produced by allelochemicals; conditions: Singh et al., U.S. Pat. No. 6,673,749 (2004)

With `CC1(C)C(=O)CC[C@@]2(C)[C@H]1CC[C@@]13C[C@H](CC[C@@H]12)[C@@](O)(CO)C3` [calliterpenone, 16α,17 dihydroxy-3-oxo phyllocladane] as the compound, how does the “plant growth promoting effect compared with GA3” value (plant growth) read?
The value was “better plant growth promoting effect than GA3”.

And the “effect on growth retardant effects produced by allelochemicals” value [1]?
Its value is “antagonizes the growth retardant effects produced by allelochemicals”.
